{"source": "patent US6294573A", "about": "“Reverse hydroxamate inhibitors of matrix metalloproteinases” (Abbott Laboratories, priority 2000, dated 2001)", "target": "T1, Recombinant truncated stromelysin (human sequence) (Homo sapiens, UniProt P08254)", "T1 construct": "made in house; host or cells: E. coli", "T1 sequence (P08254 100-273 limits assumed)": "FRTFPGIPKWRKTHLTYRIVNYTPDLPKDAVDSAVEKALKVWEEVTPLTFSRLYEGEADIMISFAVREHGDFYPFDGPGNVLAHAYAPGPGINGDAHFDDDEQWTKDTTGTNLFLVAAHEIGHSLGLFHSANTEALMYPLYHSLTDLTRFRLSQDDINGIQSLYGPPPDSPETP", "experiment": "Inhibition of stromelysin (cleavage of thiopeptide ester substrate, DTNB readout at 405 nm)", "assay_type": "biochemical", "conditions": "30 minute assay, ambient temperature, pH 6.5, thiopeptide ester substrate", "description": "The efficacy of the compounds of this invention as matrix metalloproteinase inhibitors was determined by measuring the inhibition of stromelysin. The inhibition of stromelysin by the compounds of this invention was determined as follows: Recombinant truncated stromelysin (human sequence) produced in E. coli was prepared by expression and purification of the protein as described by Ye et al. (Biochemistry, 1992, 31, 11231-11235, which is incorporated herein by reference). The enzyme was assayed by its cleavage of the thiopeptide ester substrate Ac-Pro-Leu-Gly-[2-mercapto-4-methylpentanoyl]-Leu-Gly-OEt as described by Weingarten and Feder (Anal. Biochem., 1985, 147, 437-440 (1985), which is incorporated herein by reference) as a substrate of vertebrate collagenase. The reported conditions were modified to allow assays to be carried out in a microtiter plate. Upon hydrolysis of the thioester bond, the released thiol group reacted rapidly with 5,5'-dithio-bis(2-nitrobenzoic acid) (DTNB) to produce a yellow color which was measured by a microtiter plate reader set at 405 nm. The rates of cleavage of the substrate by stromelysin in the presence or absence of inhibitors were measured in a 30 minute assay at ambient temperature. […] The potency of the compounds [IC50 ] was calculated from the inhibition/inhibitor concentration data.", "data": [{"smiles": "CN1C(=O)N(CCC(COc2ccc(-c3ccc(C#N)cc3)cc2)N(O)C=O)C(=O)C1(C)C", "note": "(racemic) [Example 5, (±)-N-[1-[[(4'-cyano-[1,1'-biphenyl]-4-yl)oxy]methyl]-3-(3,4,4-trimethyl-2,5-dioxo-1-imidazolidinyl)propyl]-N-hydroxyformamide]", "values": [{"measurement": "IC50", "value": 17, "unit": "nM"}]}]}
